Data on 2 compounds can be found in article PMC10818312, “Ocular and Plasma Pharmacokinetics of Enavogliflozin Ophthalmic Solution in Preclinical Species” (Pharmaceuticals, 2024).

For data set [1] the following is noted: male, New Zealand White, rabbit, in vivo.
Protocol: (§3) We used 9-month-old male rabbits (Envigo, Denver, PA, USA) weighing 3.1–3.7 kg in the PK studies involving a single topical ocular administration of [^14C] enavogliflozin.
(§4) The appropriate quantity of radiolabeled and non-radiolabeled test formulation (if required) was combined with the vehicle to meet the dose level (~77 μCi/eye). […] A single volumetric dose of 30 μL was administered to each eye (600 μg/eye, 1200 μg/head).
(§5) Two animals were euthanized by Euthasol® administration into the marginal ear vein at each predetermined time point (0.5, 1, 2, 4, 8, 24, and 48 h) post-instillation. Subsequently, their heads were frozen in a hexane/dry-ice bath and embedded in a 5% carboxymethylcellulose matrix. The embedded heads were sectioned at 30 μm thickness with less than 20% variation.
(§6) The primary PK parameters for concentrations of enavogliflozin were explored using a noncompartmental method of Phoenix WinNonlin 8.3 (Certara, L.P., Princeton, NJ, USA). The Cmax and Tmax were directly accepted from observed data. The AUC0–t was calculated using the linear trapezoidal method based on the mean radioactivity concentration of both eyes for ocular PKs in rabbits and the linear-up/log-down trapezoidal method for plasma PKs in rats, beagle dogs, and rabbits.
Data set [2] is described as follows: Plasma and retinal concentration after single oral administration in rabbits. Format: in vivo, male New Zealand White rabbits.
Data set [3] can be described thus: Plasma PK after single ocular administration in rats. Format: in vivo. Particulars: male, Brown Norway, topical or ocular, 25 ug, rat plasma, single ocular 25 μg. The procedure: (§1) We used 7-week-old male Brown Norway rats (Central Lab. Animal Inc., Seoul, Republic of Korea) weighing 140–180 g. The rats were acclimated for a minimum of 7 days. For the evaluation of plasma PKs after ocular administration, a single dose of 5 μL of DWRX2008 0.5% (25 μg of enavogliflozin) was topically applied on the left eye. One-year-old male Ridglan beagle dogs (JOHN Bio Co., Nantong, China) weightng 8–10 kg were chosen. The beagle dogs experienced a withdrawal period of over one month. For the evaluation of plasma PKs after ocular administration, a single dose of 20 μL of DWRX2008 0.5% (100 μg of enavogliflozin) was ocularly administered on the left eyes. In rats and beagle dogs, DWRX2008 was administered to the left eye for evaluation of safety and systemic absorption. Male New Zealand White rabbits (Samtako Biokorea, Osan, Republic of Korea) weighing 2.0–2.5 kg were used in PK studies after eye drop instillations. The rabbits were acclimated for 7 days. […]
(§2) A total of three rats were sampled 10 times at 0 (pre-dose), 0.08, 0.25, 0.5, 1, 2, 4, 8, 12 and 24 h post-dose. […] After centrifugation at 14,000 rpm for 5 min, 3 μL of sample was analyzed by LC-MS [24]. […] Finally, 3 μL of sample was analyzed by LC-MS [24]. […] Finally, 3 μL of sample was analyzed by LC-MS [24]. […]

Data set [4] in a line: Plasma PK after single ocular administration in rabbits. Format: in vivo. Particulars: male, New Zealand White, topical or ocular, 400 ug, rabbit plasma, single ocular 400 μg (both eye). As for the experimental part:
as §1, §2

Data set [5] in a line: Retina/plasma drug concentration ratio in rats. Format: in vivo. To be noted: mean (range).
For data set [6] the following is noted: no reference given; cited from earlier work.
Data set [7] is described as follows: Melanin binding capability. Format: in vitro ADME.
For a further data set, the system named is hSGLT2. To be noted: no reference given; read-out: IC50 against hSGLT2; cited from earlier work.
The nature of data set [8]: Plasma PK after single ocular administration in beagle dogs. Particulars: male, Ridglan beagle, topical or ocular, 100 ug, beagle dog plasma, single ocular 100 μg. Format: in vivo. The procedure:
as §1, §2

The test system of a further data set is hERG. Set-up: method as in earlier work. Particulars: ref Daewoong Therapeutics, DWRX2008-IB-01 Investigator’s brochure, data on file; cited from earlier work.
Data set [9] can be described thus: Ocular distribution and blood exposure of radioactivity by autoradiography after single ocular [14C] enavogliflozin (terminal sampling). Particulars: single ocular 600 μg/eye, rabbits.
Protocol: as §3, §4, §5, §6
Setting [10] is: left eye, median [min, max], n = 3.

What is called Tmax is the time at which the peak concentration occurs. As usually defined, the half-life is the time needed for the level to fall by half in the phase considered. Broadly, the IC50 is the concentration that gives 50% inhibition. In the case of `OC[C@H]1O[C@@H](c2cc(Cc3ccc(C4CC4)cc3)c(Cl)c3c2CCO3)[C@H](O)[C@@H](O)[C@@H]1O` [enavogliflozin], in data set [1], the “time until which retinal concentration remained above the IC50 of SGLT2” value worked out at 24 h. In addition, the Tmax was 0.8 h in [2] (male, New Zealand White, 400 ug, rabbit plasma, single oral 400 μg, median [min, max], n = 6); 4 h in data set [3] (setting [10]); 0.5 h in data set [4] (median [min, max], n = 6); 1 h in data set [8] (setting [10]). In addition, in data set [2] (rabbits, oral administration, same dose (400 μg)), the retinal enavogliflozin concentration result is given as “below the lower limit of quantification”. In addition, the half-life was 5.4 h in data set [3] (mean ± SD (% CV)), 3.6 h in data set [4] (mean ± SD (% CV)) and 10.6 h in data set [8] (mean ± SD (% CV)). The “mean retina/plasma (R/P) drug concentration ratio” value in [5] (1 h after administration) is recorded as 3.3 (range: 0.6–6.6); in data set [5] (3 h after administration), 1.3 (range: 0.2–2.2); in data set [5] (6 h after administration), 2.6 (range: 1.4–3.3). The “partition coefficient [Log P]” value in data set [6] was 2.13. The melanin binding capability entry in data set [7] is on record as “approximately 33%”. Further, the IC50 is 0.00043 µM in the data set with hSGLT2 and 44.9 µM in the data set on hERG.

As to [^14C] enavogliflozin, in [9] (radioactivity), the “AUC0–t in whole blood as % of corresponding value in the plasma” value is given as 64.0% and the “Cmax in whole blood as % of corresponding value in the plasma” value came to 73.4%. The “Radioactivity in the optic nerve” value in data set [9] is on record as “barely detectable”.
